Tested on: 276233-004-R-J1-PDC complex spheroid viability
Experiment: Anticancer human tumor 276233-004-R-J1-PDC patient-derived colon adenocarcinoma cell line growth inhibition [GQUAD]
Conditions: for IC50: curve of first compound; for viability, T/C: stronger effect = lower value; active means viability on the fitted dose curve at most 10% of control; inactive means the rest
Excerpt: DNA G-quadruplex Stabilizer Agents in Combinations in Complex Spheroids
A high-throughput screen of multi-cell type tumor spheroids was designed to identify active combinations of DNA G-quadruplex stabilizer agents and targeted small molecules. Complex spheroids include a stromal component modeled by human endothelial cells (HUVEC) and fibroblasts modeled by human mesenchymal stem cells (MSCs). The concentration ranges selected for each drug and investigational agent were based upon clinically achievable concentrations if the clinical Cmax of the agent was known.
Compounds. The drugs and investigational agents: pidnarulex (CX-5461; NSC782164), APTO-253 (NSC789042), BRACO-19 (NSC847499), peposertib (NSC802822), ceralasertib (NSC780249), elimusertib (NSC800525), camonsertib (NSC841442), AZD-1390 (NSC803789), olaparib (NSC753686), talazoparib (NSC767125), ART-558 (NSC835418), sotorasib (NSC818433), MRTX-1133 (NSC836407), SN-38 (NSC673596), topotecan (NSC609699), etoposide (NSC141540), doxorubicin (NSC123127), gemcitabine (NSC613327), 5-fluorouracil (NSC19893), paclitaxel (NSC125973), vemurafenib (NSC761431), panobinostat (NSC761190), R-306465 (JNJ-16241199; NSC773264), adavosertib (NSC754352), TP-3654 (NSC805149), carboplatin (NSC241240), KSQ-4279 (NSC840948), and staurosporine (NSC755774) were obtained from the National Cancer Institute (NCI) Developmental Therapeutics Program Chemical Repository (34). The FDA-approved anticancer drug set is available from the NCI Developmental Therapeutics Program. […] The stock solutions were prepared in dimethyl sulfoxide (DMSO, Sigma-Aldrich, St. Louis, MO, cat. D2650) at 800-fold the tested concentration and stored at -70 degrees C prior to their use. All drugs and investigational agents were tested over a range starting from a high concentration at or near the clinical Cmax and decreasing in half-log increments. If the clinical Cmax for an agent had not been determined, the highest concentration tested was 10 microM.
2.3 Cell Culture. All cells were maintained in an incubator at 37 degrees C and 5% CO2 with 95% humidity. The PDC lines were cultured according to standard operating procedures established by the NCI PDMR. All PDCs were thawed and cultured in Matrigel-coated flasks prepared with a working solution of 1X Ham's F-12 nutrient mix, without supplementation (Invitrogen, cat. 11765054), 100 U/mL penicillin-streptomycin (Invitrogen, cat. 15140122), and 2.5% Matrigel (Corning Inc., cat. 354248) for the first three passages. The 857933-349-R-J2-PDC line was cultured in 6C/Colon 1B media, which includes advanced DMEM/F-12 (Thermo Fisher Scientific, cat. 12634028), 10 mM HEPES (Thermo Fisher Scientific, cat. 15630080), 1X GlutaMAX supplement (Thermo Fisher Scientific, cat. 35050061), 0.1 mg/mL primocin (InvivoGen, cat. ant-pm-2), 10% defined fetal bovine serum, heat inactivated (HyClone Laboratories Inc., cat. SH30070.03HI), 50% L-WRN conditioned media (ATCC, cat. CRL-3276), 1.25 mM N-Acetyl-L-cysteine (Sigma-Aldrich, cat. A9165), 10 mM nicotinamide (Sigma-Aldrich, cat. N0636), 1X B-27 supplement (Thermo Fisher Scientific, cat. 17504044), 1X N-2 supplement (Thermo Fisher Scientific, cat. 17502048), 10 microM Y-27632 dihydrochloride (Tocris Bioscience, cat. 1254), and 50 ng/mL human EGF recombinant protein (Thermo Fisher Scientific, cat. PHG0311). The 485176-168-R4-J1-PDC line was cultured in Panc media, which includes all 6C/Colon 1B media components plus 100 ng/mL human FGF-10 (Thermo Fisher Scientific, cat. 100-26), 500 nM SB-431542 (Selleckchem, cat. S1067), and gastrin (Tocris, cat. 3006).
[…]

[1] = second compound 0.0316 µM, first compound 0.000999 µM
[2] = second compound 0.0316 µM, first compound 0.00316 µM
[3] = second compound 0.0316 µM, first compound 0.00999 µM
[4] = second compound 0.0316 µM, first compound 0.0316 µM
[5] = second compound 0.0316 µM, first compound 0.0999 µM
[6] = second compound 0.0316 µM, first compound 0.316 µM
[7] = second compound 0.1 µM, first compound 0.000999 µM
[8] = second compound 0.1 µM, first compound 0.00316 µM
[9] = second compound 0.1 µM, first compound 0.00999 µM
[10] = second compound 0.1 µM, first compound 0.0316 µM
[11] = second compound 0.1 µM, first compound 0.0999 µM
[12] = second compound 0.1 µM, first compound 0.316 µM
[13] = second compound 0.316 µM, first compound 0.000999 µM
[14] = second compound 0.316 µM, first compound 0.00316 µM
[15] = second compound 0.316 µM, first compound 0.00999 µM
[16] = second compound 0.316 µM, first compound 0.0316 µM
[17] = second compound 0.316 µM, first compound 0.0999 µM
[18] = second compound 0.316 µM, first compound 0.316 µM
[19] = second compound 1 µM, first compound 0.000999 µM
[20] = second compound 1 µM, first compound 0.00316 µM
[21] = second compound 1 µM, first compound 0.00999 µM
[22] = second compound 1 µM, first compound 0.0316 µM
[23] = second compound 1 µM, first compound 0.0999 µM
[24] = second compound 1 µM, first compound 0.316 µM
[25] = second compound 3.16 µM, first compound 0.000999 µM
[26] = second compound 3.16 µM, first compound 0.00316 µM
[27] = second compound 3.16 µM, first compound 0.00999 µM
[28] = second compound 3.16 µM, first compound 0.0316 µM
[29] = second compound 3.16 µM, first compound 0.0999 µM
[30] = second compound 3.16 µM, first compound 0.316 µM
[31] = second compound 10 µM, first compound 0.000999 µM
[32] = second compound 10 µM, first compound 0.00316 µM
[33] = second compound 10 µM, first compound 0.00999 µM
[34] = second compound 10 µM, first compound 0.0316 µM
[35] = second compound 10 µM, first compound 0.0999 µM
[36] = second compound 10 µM, first compound 0.316 µM
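Further: spheroids exposed to drugs for seven days.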

CCc1c2c(nc3ccc(O)cc13)-c1cc3c(c(=O)n1C2)COC(=O)[C@]3(O)CC + Cc1cnc(CNC(=O)c2c(=O)c3ccc(N4CCCN(C)CC4)nc3n3c2sc2ccccc23)cn1
inactive: viability, T/C [1] 96.8% | viability, T/C [2] 92.2% | viability, T/C [3] 90.9% | viability, T/C [4] 90% | viability, T/C [5] 99.4% | viability, T/C [6] 103% | viability, T/C [7] 97.9% | viability, T/C [8] 90.4% | viability, T/C [9] 90.6% | viability, T/C [10] 110% | viability, T/C [11] 94.2% | viability, T/C [12] 89.2% | viability, T/C [13] 91.6% | viability, T/C [14] 103% | viability, T/C [15] 105% | viability, T/C [16] 84.8% | viability, T/C [17] 85.8% | viability, T/C [18] 79.4% | viability, T/C [19] 85.4% | viability, T/C [20] 74.7% | viability, T/C [21] 84.7% | viability, T/C [22] 77% | viability, T/C [23] 83.2% | viability, T/C [24] 76.2% | viability, T/C [25] 81.6% | viability, T/C [26] 96.1% | viability, T/C [27] 80.2% | viability, T/C [28] 67.4% | viability, T/C [29] 85.1% | viability, T/C [30] 71.5% | viability, T/C [31] 72.4% | viability, T/C [32] 88.4% | viability, T/C [33] 75.5% | viability, T/C [34] 65.5% | viability, T/C [35] 77.8% | viability, T/C [36] 62%
> 316 nM: IC50 (second compound 0.0316 µM) | IC50 (second compound 0.1 µM) | IC50 (second compound 0.316 µM) | IC50 (second compound 1 µM) | IC50 (second compound 3.16 µM) | IC50 (second compound 10 µM)

Cc1[nH]c2ccccc2c1CCNCc1ccc(/C=C/C(=O)NO)cc1 + Cc1cnc(CNC(=O)c2c(=O)c3ccc(N4CCCN(C)CC4)nc3n3c2sc2ccccc23)cn1
144 nM: IC50 (second compound 0.1 µM)
inactive: viability, T/C [1] 90.4% | viability, T/C [2] 93% | viability, T/C [3] 87.7% | viability, T/C [4] 82.3% | viability, T/C [5] 75.7% | viability, T/C [6] 36.6% | viability, T/C [7] 80.1% | viability, T/C [8] 74.1% | viability, T/C [9] 92.7% | viability, T/C [10] 101% | viability, T/C [11] 57.8% | viability, T/C [12] 33.2% | viability, T/C [13] 88% | viability, T/C [14] 99.1% | viability, T/C [15] 102% | viability, T/C [16] 74.3% | viability, T/C [17] 57.9% | viability, T/C [18] 29.6% | viability, T/C [19] 71.5% | viability, T/C [20] 92% | viability, T/C [21] 88.1% | viability, T/C [22] 70.9% | viability, T/C [23] 35.2% | viability, T/C [24] 19.1% | viability, T/C [25] 71.6% | viability, T/C [26] 85.8% | viability, T/C [27] 68% | viability, T/C [28] 62.3% | viability, T/C [29] 29.2% | viability, T/C [31] 70.9% | viability, T/C [32] 60.8% | viability, T/C [33] 73.2% | viability, T/C [34] 54.7% | viability, T/C [35] 26.4%
40.5 nM: IC50 (second compound 10 µM)
active: viability, T/C [30] 9.8% | viability, T/C [36] 4.45%
46.9 nM: IC50 (second compound 3.16 µM)
211 nM: IC50 (second compound 0.0316 µM)
127 nM: IC50 (second compound 0.316 µM)
62.4 nM: IC50 (second compound 1 µM)

Reference: PubChem BioAssay AID2060496 (Molecular Pharmacology Branch, DTP, NCI, 2025)
